The values below come from patent publication US8936939B2, “Hormone responsive tissue culture system and uses thereof” (Whitehead Institute for Biomedical Research, priority 2004, dated 2015).

For one test, the system named is BPE cells. Briefly: In vitro growth inhibition of BPE cells by estrogen antagonist. Conditions: data not shown. The class given is cell-based, human. The source says: (§1) Expression of CK18 and BER-Ep4 both confirm the adenocarcinoma features and exclude a squamous tumor. E-cadherin excludes a mesenchymal tumor. BPLER xenografts express progesterone receptor, which is consistent with the notion that BPLER xenografts are hormone-responsive. This was confirmed by experiments in which estrogen-progesterone treatment of mice increased subject tumor size approximately two-fold compared to untreated mice. […] Similar tumor xenografts from cells cultured in the MEGM media was negative for progesterone receptor expression and the in vitro growth inhibition of the cells with ICI 182,780 was less than 20% (data not shown).

The test system of test [1] is cells cultured in the MEGM media. Briefly: In vitro growth inhibition of cells cultured in the MEGM media by estrogen antagonist. The test is classed as cell-based, human. Conditions: data not shown.
Description: as §1

Another test concerns BPEC cells. Kind of test: In vitro growth inhibition of BPEC cells by estrogen antagonist. Conditions: data not shown. The test is classed as cell-based, human.
Description: as §1

Another test deals with BPLE cells. Briefly: In vitro growth inhibition of BPLE cells by estrogen antagonist. Conditions: data not shown. The class given is cell-based, human.
Description: as §1

A further test deals with BPLER xenografts. Kind of test: Hormone response of BPLER xenograft tumors in mice. The class given is in vivo. Conditions: estrogen treated animals vs control animals. The source says:
In one respect, the histology of tumors arising from BPLER is very similar, if not identical to human ductal breast carcinoma. There is prominent luminal marker CK18 expression in BPLER cells and tumors. There is also prominent expression of E-cadherin, a marker indicating polarization of cells. Morphology wise, BPLER xenografts form glandular structures similar to those seen in human tumors. BPLER xenografts into mammary fat pads are invasive into adjacent skeletal muscle, and cause a desmoplastic reaction. BPLER xenografts also express progesterone receptors based on immunohistological staining of xenograft tumor samples. In addition, BPLER tumor sizes respond to estrogen treatment, in that xenograft tumors weighed about 70-100% more in estrogen treated animals than in control animals. BPLER tumors spread within the breast tissue of mice, and the multifocal growth is consistent with lymphovascular invasion and spread of tumors.
Subcutaneous tumorigenicity was tested in 6-8 week old immunocompromised athymic nude mice by injecting about 1×10^6 cells resuspended in 100 μl of 50% matrigel (EHSS). Nude mice were irradiated with 400 rad 12 hr prior to injections. Orthotopic tumorigenicity was tested by injecting about 1×10^6 cells into the mammary fat pad of Nod/Skid mice. All mice were sacrificed on day 70. […]

On to `C[C@]12CC[C@@H]3c4ccc(O)cc4C[C@@H](CCCCCCCCC[S+]([O-])CCCC(F)(F)C(F)(F)F)[C@H]3[C@@H]1CC[C@@H]2O` (some centres unmarked) [ICI 182,780], for which the growth inhibition with BPE cells, in the test on BPEC cells and in the test on BPLE cells was over 80% each time. The “in vitro growth inhibition” value in test [1] is recorded as “less than 20%”.
For the compound estrogen, the “xenograft tumor weight increase in treated versus control animals” value with BPLER xenografts was 70-100%.
